Experimental data taken from the supplement of paper PMC10307832.

Key:
Test in all cases: relative viability (nuclei count vs DMSO), 5 days (fraction); higher = more cells survive
Doramapimod + Olaparib = compound: Cc1ccc(-n2nc(C(C)(C)C)cc2NC(=O)Nc2ccc(OCCN3CCOCC3)c3ccccc23)cc1 [Doramapimod] + O=C(c1cc(Cc2n[nH]c(=O)c3ccccc23)ccc1F)N1CCN(C(=O)C2CC2)CC1 [Olaparib] (partner 8 µM)
Outline: (§1)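 Lung cancer cell lines were pin-tool dosed in 1536-well plates on the day after seeding, with either a lone drug or a fixed anchor-drug dose plus five library-drug doses (not always all listed) in √10 steps. Nuclei were counted on 4× images after 5 days. Relative viability is the ratio of treated-well to vehicle-well nuclei counts, with each value a median of duplicate plates.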

RAF265 + Lapatinib = compound: Cn1c(Nc2ccc(C(F)(F)F)cc2)nc2cc(Oc3ccnc(-c4ncc(C(F)(F)F)[nH]4)c3)ccc21 [RAF265] + CS(=O)(=O)CCNCc1ccc(-c2ccc3ncnc(Nc4ccc(OCc5cccc(F)c5)c(Cl)c4)c3c2)o1 [Lapatinib] (partner 2 µM)
Outline: as §1

Doramapimod + Trametinib = compound: Cc1ccc(-n2nc(C(C)(C)C)cc2NC(=O)Nc2ccc(OCCN3CCOCC3)c3ccccc23)cc1 [Doramapimod] + CC(=O)Nc1cccc(-n2c(=O)n(C3CC3)c(=O)c3c(Nc4ccc(I)cc4F)n(C)c(=O)c(C)c32)c1 [Trametinib] (partner 0.02 µM)
Outline: as §1

IPA-3 + Alpelisib = compound: C1=CC=C2C(=C1)C=CC(=C2SSC3=C(C=CC4=CC=CC=C43)O)O [IPA-3] + Cc1nc(NC(=O)N2CCC[C@H]2C(N)=O)sc1-c1ccnc(C(C)(C)C(F)(F)F)c1 [Alpelisib] (partner 2 µM)
Outline: as §1

NCI-H2009
relative viability (Doramapimod + Olaparib; first compound 0.02 µM): 0.669
relative viability (Doramapimod + Olaparib; first compound 0.06325 µM): 0.697
relative viability (Doramapimod + Olaparib; first compound 0.2 µM): 0.669
relative viability (Doramapimod + Olaparib; first compound 0.6325 µM): 0.712
relative viability (Doramapimod + Olaparib; first compound 2 µM): 0.622
relative viability (RAF265 + Lapatinib; first compound 0.01 µM): 1.01
relative viability (RAF265 + Lapatinib; first compound 0.03162 µM): 0.941
relative viability (RAF265 + Lapatinib; first compound 0.1 µM): 0.85
relative viability (RAF265 + Lapatinib; first compound 0.3162 µM): 0.885
relative viability (RAF265 + Lapatinib; first compound 1 µM): 0.691
relative viability (Doramapimod + Trametinib; first compound 0.02 µM): 0.285
relative viability (Doramapimod + Trametinib; first compound 0.06325 µM): 0.247
relative viability (Doramapimod + Trametinib; first compound 0.2 µM): 0.351
relative viability (Doramapimod + Trametinib; first compound 0.6325 µM): 0.308
relative viability (Doramapimod + Trametinib; first compound 2 µM): 0.239
relative viability (IPA-3 + Alpelisib; first compound 0.2 µM): 1.22
relative viability (IPA-3 + Alpelisib; first compound 0.6325 µM): 1.18
relative viability (IPA-3 + Alpelisib; first compound 2 µM): 1.24
relative viability (IPA-3 + Alpelisib; first compound 6.325 µM): 1.16
relative viability (IPA-3 + Alpelisib; first compound 20 µM): 1.14

NCI-H2023
relative viability (Doramapimod + Olaparib; first compound 0.02 µM): 0.546
relative viability (Doramapimod + Olaparib; first compound 0.06325 µM): 0.534
relative viability (Doramapimod + Olaparib; first compound 0.2 µM): 0.491
relative viability (Doramapimod + Olaparib; first compound 0.6325 µM): 0.563
relative viability (Doramapimod + Olaparib; first compound 2 µM): 0.456
relative viability (RAF265 + Lapatinib; first compound 0.01 µM): 0.905
relative viability (RAF265 + Lapatinib; first compound 0.03162 µM): 0.77
relative viability (RAF265 + Lapatinib; first compound 0.1 µM): 1.13
relative viability (RAF265 + Lapatinib; first compound 0.3162 µM): 0.579
relative viability (RAF265 + Lapatinib; first compound 1 µM): 0.727
relative viability (Doramapimod + Trametinib; first compound 0.02 µM): 0.493
relative viability (Doramapimod + Trametinib; first compound 0.06325 µM): 0.447
relative viability (Doramapimod + Trametinib; first compound 0.2 µM): 0.489
relative viability (Doramapimod + Trametinib; first compound 0.6325 µM): 0.634
relative viability (Doramapimod + Trametinib; first compound 2 µM): 0.548
relative viability (IPA-3 + Alpelisib; first compound 0.2 µM): 0.737
relative viability (IPA-3 + Alpelisib; first compound 0.6325 µM): 0.636
relative viability (IPA-3 + Alpelisib; first compound 2 µM): 0.575
relative viability (IPA-3 + Alpelisib; first compound 6.325 µM): 0.628
relative viability (IPA-3 + Alpelisib; first compound 20 µM): 0.768

NCI-H2085
relative viability (Doramapimod + Olaparib; first compound 0.02 µM): 0.886
relative viability (Doramapimod + Olaparib; first compound 0.06325 µM): 0.844
relative viability (Doramapimod + Olaparib; first compound 0.2 µM): 0.756
relative viability (Doramapimod + Olaparib; first compound 0.6325 µM): 0.871
relative viability (Doramapimod + Olaparib; first compound 2 µM): 0.823
relative viability (RAF265 + Lapatinib; first compound 0.01 µM): 0.777
relative viability (RAF265 + Lapatinib; first compound 0.03162 µM): 0.709
relative viability (RAF265 + Lapatinib; first compound 0.1 µM): 0.806
relative viability (RAF265 + Lapatinib; first compound 0.3162 µM): 0.843
relative viability (RAF265 + Lapatinib; first compound 1 µM): 0.717
relative viability (Doramapimod + Trametinib; first compound 0.02 µM): 0.496
relative viability (Doramapimod + Trametinib; first compound 0.06325 µM): 0.494
relative viability (Doramapimod + Trametinib; first compound 0.2 µM): 0.502
relative viability (Doramapimod + Trametinib; first compound 0.6325 µM): 0.471
relative viability (Doramapimod + Trametinib; first compound 2 µM): 0.494
relative viability (IPA-3 + Alpelisib; first compound 0.2 µM): 1.07
relative viability (IPA-3 + Alpelisib; first compound 0.6325 µM): 0.919
relative viability (IPA-3 + Alpelisib; first compound 2 µM): 0.989
relative viability (IPA-3 + Alpelisib; first compound 6.325 µM): 0.949
relative viability (IPA-3 + Alpelisib; first compound 20 µM): 0.984

NCI-H2087
relative viability (Doramapimod + Olaparib; first compound 0.02 µM): 0.562
relative viability (Doramapimod + Olaparib; first compound 0.06325 µM): 0.577
relative viability (Doramapimod + Olaparib; first compound 0.2 µM): 0.525
relative viability (Doramapimod + Olaparib; first compound 0.6325 µM): 0.675
relative viability (Doramapimod + Olaparib; first compound 2 µM): 0.481
relative viability (RAF265 + Lapatinib; first compound 0.01 µM): 0.964
relative viability (RAF265 + Lapatinib; first compound 0.03162 µM): 0.874
relative viability (RAF265 + Lapatinib; first compound 0.1 µM): 0.837
relative viability (RAF265 + Lapatinib; first compound 0.3162 µM): 0.833
relative viability (RAF265 + Lapatinib; first compound 1 µM): 0.684
relative viability (Doramapimod + Trametinib; first compound 0.02 µM): 0.235
relative viability (Doramapimod + Trametinib; first compound 0.06325 µM): 0.163
relative viability (Doramapimod + Trametinib; first compound 0.2 µM): 0.198
relative viability (Doramapimod + Trametinib; first compound 0.6325 µM): 0.197
relative viability (Doramapimod + Trametinib; first compound 2 µM): 0.193
relative viability (IPA-3 + Alpelisib; first compound 0.2 µM): 1.19
relative viability (IPA-3 + Alpelisib; first compound 0.6325 µM): 0.974
relative viability (IPA-3 + Alpelisib; first compound 2 µM): 1.21
relative viability (IPA-3 + Alpelisib; first compound 6.325 µM): 1.07
relative viability (IPA-3 + Alpelisib; first compound 20 µM): 0.973

NCI-H2126
relative viability (Doramapimod + Olaparib; first compound 0.02 µM): 0.768
relative viability (Doramapimod + Olaparib; first compound 0.06325 µM): 0.925
relative viability (Doramapimod + Olaparib; first compound 0.2 µM): 0.989
relative viability (Doramapimod + Olaparib; first compound 0.6325 µM): 0.962
relative viability (Doramapimod + Olaparib; first compound 2 µM): 0.94
relative viability (RAF265 + Lapatinib; first compound 0.01 µM): 0.765
relative viability (RAF265 + Lapatinib; first compound 0.03162 µM): 0.732
relative viability (RAF265 + Lapatinib; first compound 0.1 µM): 0.718
relative viability (RAF265 + Lapatinib; first compound 0.3162 µM): 0.756
relative viability (RAF265 + Lapatinib; first compound 1 µM): 0.662
relative viability (Doramapimod + Trametinib; first compound 0.02 µM): 0.551
relative viability (Doramapimod + Trametinib; first compound 0.06325 µM): 0.546
relative viability (Doramapimod + Trametinib; first compound 0.2 µM): 0.571
relative viability (Doramapimod + Trametinib; first compound 0.6325 µM): 0.637
relative viability (Doramapimod + Trametinib; first compound 2 µM): 0.524
relative viability (IPA-3 + Alpelisib; first compound 0.2 µM): 0.762
relative viability (IPA-3 + Alpelisib; first compound 0.6325 µM): 0.73
relative viability (IPA-3 + Alpelisib; first compound 2 µM): 0.699
relative viability (IPA-3 + Alpelisib; first compound 6.325 µM): 0.727
relative viability (IPA-3 + Alpelisib; first compound 20 µM): 0.928

NCI-H2170
relative viability (Doramapimod + Olaparib; first compound 0.02 µM): 0.596
relative viability (Doramapimod + Olaparib; first compound 0.06325 µM): 0.643
relative viability (Doramapimod + Olaparib; first compound 0.2 µM): 0.57
relative viability (Doramapimod + Olaparib; first compound 0.6325 µM): 0.588
relative viability (Doramapimod + Olaparib; first compound 2 µM): 0.605
relative viability (RAF265 + Lapatinib; first compound 0.01 µM): 0.278
relative viability (RAF265 + Lapatinib; first compound 0.03162 µM): 0.306
relative viability (RAF265 + Lapatinib; first compound 0.1 µM): 0.284
relative viability (RAF265 + Lapatinib; first compound 0.3162 µM): 0.296
relative viability (RAF265 + Lapatinib; first compound 1 µM): 0.287
relative viability (Doramapimod + Trametinib; first compound 0.02 µM): 0.854
relative viability (Doramapimod + Trametinib; first compound 0.06325 µM): 1.02
relative viability (Doramapimod + Trametinib; first compound 0.2 µM): 0.934
relative viability (Doramapimod + Trametinib; first compound 0.6325 µM): 0.981
relative viability (Doramapimod + Trametinib; first compound 2 µM): 0.825
relative viability (IPA-3 + Alpelisib; first compound 0.2 µM): 0.871
relative viability (IPA-3 + Alpelisib; first compound 0.6325 µM): 0.781
relative viability (IPA-3 + Alpelisib; first compound 2 µM): 0.894
relative viability (IPA-3 + Alpelisib; first compound 6.325 µM): 0.727
relative viability (IPA-3 + Alpelisib; first compound 20 µM): 0.806

NCI-H2228
relative viability (Doramapimod + Olaparib; first compound 0.02 µM): 0.558
relative viability (Doramapimod + Olaparib; first compound 0.06325 µM): 0.599
relative viability (Doramapimod + Olaparib; first compound 0.2 µM): 0.857
relative viability (Doramapimod + Olaparib; first compound 0.6325 µM): 0.811
relative viability (Doramapimod + Olaparib; first compound 2 µM): 0.592
relative viability (RAF265 + Lapatinib; first compound 0.01 µM): 1.25
relative viability (RAF265 + Lapatinib; first compound 0.03162 µM): 0.859
relative viability (RAF265 + Lapatinib; first compound 0.1 µM): 1.24
relative viability (RAF265 + Lapatinib; first compound 0.3162 µM): 0.416
relative viability (RAF265 + Lapatinib; first compound 1 µM): 0.43
relative viability (Doramapimod + Trametinib; first compound 0.02 µM): 0.391
relative viability (Doramapimod + Trametinib; first compound 0.06325 µM): 0.44
relative viability (Doramapimod + Trametinib; first compound 0.2 µM): 0.46
relative viability (Doramapimod + Trametinib; first compound 0.6325 µM): 0.519
relative viability (Doramapimod + Trametinib; first compound 2 µM): 0.484
relative viability (IPA-3 + Alpelisib; first compound 0.2 µM): 0.948
relative viability (IPA-3 + Alpelisib; first compound 0.6325 µM): 0.785
relative viability (IPA-3 + Alpelisib; first compound 2 µM): 0.884
relative viability (IPA-3 + Alpelisib; first compound 6.325 µM): 0.68
relative viability (IPA-3 + Alpelisib; first compound 20 µM): 0.51

NCI-H2347
relative viability (Doramapimod + Olaparib; first compound 0.02 µM): 0.618
relative viability (Doramapimod + Olaparib; first compound 0.06325 µM): 0.641
relative viability (Doramapimod + Olaparib; first compound 0.2 µM): 0.546
relative viability (Doramapimod + Olaparib; first compound 0.6325 µM): 0.575
relative viability (Doramapimod + Olaparib; first compound 2 µM): 0.53
relative viability (RAF265 + Lapatinib; first compound 0.01 µM): 1.1
relative viability (RAF265 + Lapatinib; first compound 0.03162 µM): 0.915
relative viability (RAF265 + Lapatinib; first compound 0.1 µM): 0.998
relative viability (RAF265 + Lapatinib; first compound 0.3162 µM): 0.887
relative viability (RAF265 + Lapatinib; first compound 1 µM): 0.435
relative viability (Doramapimod + Trametinib; first compound 0.02 µM): 0.281
relative viability (Doramapimod + Trametinib; first compound 0.06325 µM): 0.23
relative viability (Doramapimod + Trametinib; first compound 0.2 µM): 0.249
relative viability (Doramapimod + Trametinib; first compound 0.6325 µM): 0.26
relative viability (Doramapimod + Trametinib; first compound 2 µM): 0.261
relative viability (IPA-3 + Alpelisib; first compound 0.2 µM): 1.12
relative viability (IPA-3 + Alpelisib; first compound 0.6325 µM): 0.941
relative viability (IPA-3 + Alpelisib; first compound 2 µM): 0.928
relative viability (IPA-3 + Alpelisib; first compound 6.325 µM): 1.08
relative viability (IPA-3 + Alpelisib; first compound 20 µM): 1.01
